Measured values taken from US20260035364A1, “BICYCLIC TETRAHYDROTHIAZEPINE DERIVATIVES” (Hoffmann-La Roche Inc., priority 2022, published 2026).
pEC50, pIC50: −log10 of the molar value.

Columns and labels:
primary human T-cells = assay: T-cell proliferation assay (CellTiter-Glo); format: cell-based; settings: Homo sapiens, T-cell, 120 h, CD3 condition; for Emax: 5 days, 20 μM reference compound A1 = 100%, read-out: Emax proliferation (% activation); for pEC50: proliferation after 5 days, CellTiter-Glo, read-out: Tcell Proliferation CD3 EC50
Procedure: Expanded primary human T-cells are thawed and cultured in RPMI 1640 (Gibco, #61870-010)+5% human serum (HS, Sigma, #H3667)+1 mM Sodium Pyruvate (Gibco, #11360-039)+50 μM 2-mercaptoethanol (Gibco, #31350-010) and 1× Pen-Strep (Life Technologies, #15140122) medium at density of 2 Mio/ml for 3 hours in 5% CO2, 37° C. and 95% humidity. For coating of plates, PBS++ only or PBS++ with CD3 antibody (concentration depending on donor and determined by CD3 titrations) is added 100 μl/well to Poly-D Lysine coated 96-well plates. Plates are sealed and incubated at room temperature for 3 hours on a table-top rocking platform. After incubation, plates are washed once with PBS−− and filled with 40 μl/well culture medium only. Compounds are then added (see next section) to medium only plates. After 3 hours of culturing the T-cells, cells are filtered through a cell strainer (Miltenyi Biotech, #130-041-407), counted again and concentration is adjusted to 1.25 Mio/ml.
Cells are then seeded 80 μl/well to the 40 µl/well including dispensed compounds according to plate layout. By adding cells, compounds are further diluted 1:3, and resulting in 100k cells/120 µl/well. After 48 hours 40 μl of supernatant is collected carefully from the top while not disturbing the cells. Cells are assessed for proliferation 5 days later by measuring […] using CellTiterGlo (Promega).
Compounds were added in a 5 or 6 pt dose response with the Tecan D300e Digital Dispenser, all conditions 3 times more concentrated than the end-concentration, since cells are added afterwards (80p1 cells to 40p1 prepared medium with treatment). The DR was starting at 20 μM or 10 μM final top concentration and a dilution factor of 3.333. The positive control was the reference compound A1 that was added in a dose response as well, additionally to 3 wells of only 20 μM representing the positive stimulator control. All wells were normalized with DMSO to a final concentration of 0.6% (0.2% end-concentration).
After 5 days, for detection of ATP which is directly proportional to the number of cells present per well, the CellTiter-Glo® 2.0 Reagent is used. After visual control for toxicity or precipitations of the tested compounds, the plates are equilibrated to room temperature for 45 minutes. CellTiter-Glo® 2.0 Reagent is equilibrated to room temperature as well. After equilibration, an equal amount of CellTiter-Glo reagent is added to the cells (80 µl/well) with an electronic multichannel pipette. Plates are placed on a rocking platform for 15 minutes at room temperature. After incubation, the bottom of the plates is sealed with backing tape. Luminescence is measured with PHERAstar FSX (interval time 0.5 sec, gain 3000, focal height 15 mm) and exported as CSV file for analysis in Genedata screener.
Calculations and Data Reporting CD3 and PBS plates were analysed separately in Genedata Screener using Roche Normalization PCT_POS_CTRL with DMSO set as Neutral Control and 20 μM of the reference compound A1 set as Stimulator Control/100%.
For CD3 conditions EC50 and Emax of the fitted sigmoidal curve were reported. If no curve could be fitted, the EC50 was reported as blank field and the Emax was based on individual data points. […] Compounds which activate unstimulated cells (see IL2 measurements) or compounds which negatively affected viability were flagged.

DGKzeta = DGKzeta (Homo sapiens, UniProt Q13574); assay: In vitro DGK inhibition assay (ADP-Glo, liposomes), DGKzeta; format: biochemical; parameters: hDGKzeta(1-928)-N-His; His (N); made in house; host or cells: Sf21 insect cells (baculovirus); settings: 2 nM DGK ζ, 50 μM ATP, 125 uM DLG in liposomes, 1 hour reaction
Procedure: DGK α and ζ kinases use ATP to phosphorylate the substrate 1,2-dilauroyl-sn-glycerol (DLG, incorporated in the liposomes). ATP is converted to ADP as a result of this enzymatic reaction. After the kinase reaction, an ATP-depletion reagent is added to terminate the kinase reaction and deplete any remaining ATP, leaving only ADP. Second, a detection reagent is added to simultaneously convert ADP to ATP and allow the newly synthesized ATP to be converted to light using a coupled luciferase/luciferin reaction.
Purification of both enzymes was performed as previously described by Takahashi et al., PeerJ, 2018 (Takahashi, D.; Sakane, F. Expression and purification of human diacylglycerol kinase alpha from baculovirus-infected insect cells for structural studies. PeerJ 2018, 6, No. e5449).
A concentrated liposome solution was prepared in assay buffer without DTT and BSA: 2 mM of DLG in 21 mM of total liposome (2 mM DLG/8 mM PS/11 mM PC). The reaction mixtures contain the assay buffer with a final DLG concentration of 125 uM ATP concentrations of 25 μM (for DGKA assay) or 50 μM (for DGKZ assay). The reactions were started by addition of DGK a and (kinases at 4 nM and 2 nM final concentrations, respectively. After 1 hour reaction, the amount of ADP formed was detected with the ADP-Glo kinase assay (Promega) according to the manufacturer instructions. Compounds were added in 11-points dose response, starting at […], 1:3 dilutions, with a final DMSO concentration of 2%. The multidrop combi was used as a liquid handler and luminescence was read with 0.5 s by the envision reader (PE).

Sequence of DGKzeta (Q13574 whole entry): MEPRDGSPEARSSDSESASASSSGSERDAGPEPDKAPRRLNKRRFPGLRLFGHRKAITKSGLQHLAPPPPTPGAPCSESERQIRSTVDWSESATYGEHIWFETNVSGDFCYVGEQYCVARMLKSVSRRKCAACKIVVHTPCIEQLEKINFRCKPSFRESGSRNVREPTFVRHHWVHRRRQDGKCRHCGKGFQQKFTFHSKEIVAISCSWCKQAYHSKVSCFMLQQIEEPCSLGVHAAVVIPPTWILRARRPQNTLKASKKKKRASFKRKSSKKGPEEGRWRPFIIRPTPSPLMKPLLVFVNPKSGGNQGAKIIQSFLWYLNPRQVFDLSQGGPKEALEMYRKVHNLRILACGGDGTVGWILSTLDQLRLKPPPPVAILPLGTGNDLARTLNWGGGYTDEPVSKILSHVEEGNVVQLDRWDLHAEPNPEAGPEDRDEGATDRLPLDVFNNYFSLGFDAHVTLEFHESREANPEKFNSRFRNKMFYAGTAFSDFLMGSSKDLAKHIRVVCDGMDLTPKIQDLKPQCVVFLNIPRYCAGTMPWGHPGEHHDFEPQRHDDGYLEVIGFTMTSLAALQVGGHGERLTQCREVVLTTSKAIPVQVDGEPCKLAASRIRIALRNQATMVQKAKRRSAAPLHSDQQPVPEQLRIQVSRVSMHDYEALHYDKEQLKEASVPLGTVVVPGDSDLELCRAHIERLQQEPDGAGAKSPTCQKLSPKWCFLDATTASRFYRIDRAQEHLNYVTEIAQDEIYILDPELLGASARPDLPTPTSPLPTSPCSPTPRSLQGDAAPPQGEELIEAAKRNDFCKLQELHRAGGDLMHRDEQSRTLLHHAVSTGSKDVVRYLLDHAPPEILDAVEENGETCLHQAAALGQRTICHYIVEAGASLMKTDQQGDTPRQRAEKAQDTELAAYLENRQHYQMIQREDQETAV

SMILES	pIC50 (DGKzeta)	Emax (primary human T-cells)	pEC50 (primary human T-cells)
CC(C)(c1nnc(-c2ccc3c(c2)N(Cc2ccc(Oc4ccccc4)cc2)C(=O)[C@@H](N)CS3(=O)=O)o1)S(C)(=O)=O [Example 5, (3R)-3-amino-7-[5-(1-methyl-1-methylsulfonyl-ethyl)-1,3,4-oxadiazol-2-yl]-1,1-dioxo-5-[(4-phenoxyphenyl)methyl]-2,3-dihydro-1λ6,5-benzothiazepin-4-one]	6.15	120%	6.03
CS(=O)(=O)C1(c2nnc(-c3ccc4c(c3)N(Cc3ccc(Oc5ccccc5)cc3)C(=O)[C@@H](N)CS4(=O)=O)o2)CCC1 [Example 68, (3R)-3-amino-7-[5-(1-methylsulfonylcyclobutyl)-1,3,4-oxadiazol-2-yl]-1,1-dioxo-5-[(4-phenoxyphenyl)methyl]-2,3-dihydro-1λ6,5-benzothiazepin-4-one]	5.46	83%	5.64
CC(C)(c1nnc(-c2ccc3c(c2)N(Cc2ccc(OCc4ccc(F)cc4)cc2)C(=O)[C@@H](N)CS3(=O)=O)o1)S(C)(=O)=O [Example 12, (3R)-3-amino-5-[[4-[(4-fluorophenyl)methoxy]phenyl]methyl]-7-[5-(1-methyl-1-methylsulfonyl-ethyl)-1,3,4-oxadiazol-2-yl]-1,1-dioxo-2,3-dihydro-1λ6,5-benzothiazepin-4-one]	6.10	151%	6.23
CC(C)(c1nnc(-c2ccc3c(c2)N(Cc2ccc(Oc4cccc(C(F)(F)F)c4)cc2)C(=O)[C@@H](N)CS3(=O)=O)o1)S(C)(=O)=O [Example 38]	5.89	130%	6.21
CC(C)(c1nnc(-c2ccc3c(c2)N(Cc2ccc(Oc4cccc(Br)c4)cc2)C(=O)[C@@H](N)CS3(=O)=O)o1)S(C)(=O)=O [Example 60, (3R)-3-amino-5-[[4-(3-bromophenoxy)phenyl]methyl]-7-[5-(1-methyl-1-methylsulfonyl-ethyl)-1,3,4-oxadiazol-2-yl]-1,1-dioxo-2,3-dihydro-1λ6,5-benzothiazepin-4-one]	6.22	119%	6.18
CC(C)(c1nnc(-c2ccc3c(c2)N(Cc2ccc(-c4ccc(C#N)cc4)cc2)C(=O)[C@@H](N)CS3(=O)=O)o1)S(C)(=O)=O [Example 20, 4-[4-[[(3R)-3-amino-7-[5-(1-methyl-1-methylsulfonyl-ethyl)-1,3,4-oxadiazol-2-yl]-1,1,4-trioxo-2,3-dihydro-1λ6,5-benzothiazepin-5-yl]methyl]phenyl]benzonitrile]	5.84	85%	5.40
CC(C)(c1nnc(-c2ccc3c(c2)N(Cc2ccc(-c4ccc(C(F)(F)F)cc4)cc2)C(=O)[C@@H](N)CS3(=O)=O)o1)S(=O)(=O)N1CCCC1 [Example 67, (3R)-3-amino-7-[5-(1-methyl-1-pyrrolidin-1-ylsulfonyl-ethyl)-1,3,4-oxadiazol-2-yl]-1,1-dioxo-5-[[4-[4-(trifluoromethyl)phenyl]phenyl]methyl]-2,3-dihydro-1λ6,5-benzothiazepin-4-one]	4.30	142%	5.26
CS(=O)(=O)Cn1nnc(-c2cc3c(cc2F)S(=O)(=O)C[C@H](N)C(=O)N3Cc2ccc(Oc3ccccc3)cc2)n1 [Example 54, (3R)-3-amino-8-fluoro-7-[2-(methylsulfonylmethyl)tetrazol-5-yl]-1,1-dioxo-5-[(4-phenoxyphenyl)methyl]-2,3-dihydro-1λ6,5-benzothiazepin-4-one]	6.22	310%	5.81
CC(C)(c1nnc(-c2ccc3c(c2)N(Cc2ccc(SC(F)(F)F)cc2)C(=O)[C@@H](N)CS3(=O)=O)o1)S(C)(=O)=O [Example 7]	5.77	76%	5.45
CC(C)(c1nc(-c2cc3c(cc2F)S(=O)(=O)C[C@H](N)C(=O)N3Cc2ccc(C3CCOCC3)cc2)no1)S(C)(=O)=O [Example 53, (3R)-3-amino-8-fluoro-7-[5-(1-methyl-1-methylsulfonyl-ethyl)-1,2,4-oxadiazol-3-yl]-1,1-dioxo-5-[(4-tetrahydropyran-4-ylphenyl)methyl]-2,3-dihydro-1λ6,5-benzothiazepin-4-one]		167%	5.50

Further compounds by rising pIC50 (DGKzeta), results first:

pIC50 (DGKzeta)	SMILES	Emax (primary human T-cells)	pEC50 (primary human T-cells)
5.82	CCC(CC)Oc1ccc(CN2C(=O)[C@@H](N)CS(=O)(=O)c3ccc(-c4nnc(C(C)(C)S(C)(=O)=O)o4)cc32)cc1 [Example 19, (3R)-3-amino-5-[[4-(1-ethylpropoxy)phenyl]methyl]-7-[5-(1-methyl-1-methylsulfonyl-ethyl)-1,3,4-oxadiazol-2-yl]-1,1-dioxo-2,3-dihydro-1λ6,5-benzothiazepin-4-one]	78%	5.56
5.94	CS(=O)(=O)C1(c2nnc(-c3ccc4c(c3)N(Cc3ccc(Oc5ccccc5)cc3)C(=O)[C@@H](N)CS4(=O)=O)o2)CC1 [Example 66, (3R)-3-amino-7-[5-(1-methylsulfonylcyclopropyl)-1,3,4-oxadiazol-2-yl]-1,1-dioxo-5-[(4-phenoxyphenyl)methyl]-2,3-dihydro-1λ6,5-benzothiazepin-4-one]	144%	5.66
5.95	CC(C)(c1nnc(-c2ccc3c(c2)N(Cc2ccc(OCc4ccccc4F)cc2)C(=O)[C@@H](N)CS3(=O)=O)o1)S(C)(=O)=O [Example 14, (3R)-3-amino-5-[[4-[(2-fluorophenyl)methoxy]phenyl]methyl]-7-[5-(1-methyl-1-methylsulfonyl-ethyl)-1,3,4-oxadiazol-2-yl]-1,1-dioxo-2,3-dihydro-1λ6,5-benzothiazepin-4-one]	113%	5.92
6.38	CC(C)(c1nnc(-c2cc3c(cc2F)S(=O)(=O)C[C@H](N)C(=O)N3Cc2ccc(-c3ccc(C(F)(F)F)nc3)cc2)o1)S(C)(=O)=O [Example 36]	112%	5.78
6.60	COc1ccc(-c2ccc(CN3C(=O)[C@@H](N)CS(=O)(=O)c4cc(F)c(-c5nnc(C(C)(C)S(C)(=O)=O)o5)cc43)cc2)cc1 [Example 29, (3R)-3-amino-8-fluoro-5-[[4-(4-methoxyphenyl)phenyl]methyl]-7-[5-(1-methyl-1-methylsulfonyl-ethyl)-1,3,4-oxadiazol-2-yl]-1,1-dioxo-2,3-dihydro-1λ6,5-benzothiazepin-4-one]	108%	7.26
